Test results as given in ChEMBL document CHEMBL1141107, “A novel series of non-carboxylic acid, non-hydantoin inhibitors of aldose reductase with potent oral activity in diabetic rat models: 6-(5-chloro-3-methylbenzofuran-2-sulfonyl)-2H-pyridazin-3-one and congeners” (J Med Chem, 2005).

Legend:
[1] = biological target: Aldo-keto reductase family 1 member B1 (Homo sapiens, UniProt P15121); assay: In vitro inhibitroy concentration against Aldose reductase incubated at 24 degree C for 15 minutes in pH 7.0
Rattus norvegicus [2] = assay: Inhibition of fructose accumulation in diabetic rat after oral gavage administration incubated at RT for 60 minutes in pH 4.5 by chronic test 10 mg/kg; details: 1 h
Rattus norvegicus [3] = assay: Inhibition of fructose accumulation in diabetic rat after oral gavage administration incubated at RT for 60 minutes in pH 4.5 by chronic test 30 mg/kg; details: 1 h
Rattus norvegicus [4] = assay: Inhibition of fructose accumulation in diabetic rat after oral gavage administration incubated at RT for 60 minutes in pH 4.5 by acute test dosed at 10 mg/kg; assay type: functional; details: 1 h
Rattus norvegicus [5] = assay: Inhibition of sorbitol accumulation in diabetic rat by acute test dosed at 10 mg/kg; assay type: functional
Rattus norvegicus [6] = assay: Inhibition of fructose accumulation in diabetic rat after oral gavage administration incubated at RT for 60 minutes in pH 4.5 by acute test dosed at 20 mg/kg; assay type: functional; details: 1 h
Rattus norvegicus [7] = assay: Inhibition of sorbitol accumulation in diabetic rat by acute test dosed at 20 mg/kg; assay type: functional
Rattus norvegicus [8] = assay: Inhibition of fructose accumulation in diabetic rat after oral gavage administration, pH 4.5 by chronic test; assay type: functional
Rattus norvegicus [9] = organism: Rattus norvegicus; assay: Inhibition of sorbitol accumulation in diabetic rat by chronic test; assay type: functional
Rattus norvegicus [10] = assay: Inhibition of fructose accumulation in diabetic rat after oral gavage administration, pH 4.5 by chronic test dosed at 20 mg/kg; assay type: functional
Rattus norvegicus [11] = assay: Inhibition of sorbitol accumulation in diabetic rat by chronic test dosed at 20 mg/kg; assay type: functional
Rattus norvegicus [12] = assay: Inhibition of sorbitol accumulation in diabetic rat by acute test dosed at 50 mg/kg; assay type: functional
Rattus norvegicus [13] = assay: Inhibition of fructose accumulation in diabetic rat after oral gavage administration, pH 4.5 by chronic test dosed at 10 mg/kg; assay type: functional
Rattus norvegicus [14] = assay: Inhibition of sorbitol accumulation in diabetic rat by chronic test dosed at 10 mg/kg; assay type: functional

SMILES | IC50 [1] | inhibition in vivo at 10 mg/kg (Rattus norvegicus [4]) | inhibition in vivo at 20 mg/kg (Rattus norvegicus [6]) | inhibition in vivo at 20 mg/kg (Rattus norvegicus [7]) | also measured
O=S(=O)(Cc1ccccc1Cl)c1ccc(O)nn1 | 118 nM | – | – | – | –
Cc1c(S(=O)(=O)c2ccc(O)nn2)oc2cc(Cl)ccc12 | 190 nM | 28% | – | – | inhibition in vivo at 10 mg/kg (Rattus norvegicus [5]): 40%
O=S(=O)(Cc1ccccc1C(F)(F)F)c1ccc(O)nn1 | 500 nM | – | – | – | –
O=c1ccc(S(=O)(=O)c2cc3ccccc3o2)n[nH]1 | – | 34% | – | – | –
CC(C)c1c(S(=O)(=O)c2ccc(O)nn2)oc2ccc(Cl)cc12 | 92 nM | – | – | – | Inhibition (Rattus norvegicus [8]): 14%; Inhibition (Rattus norvegicus [9]): 48%
O=S(=O)(c1ccc(O)nn1)c1oc2ccccc2c1-c1ccc(F)cc1 | 49 nM | 50% | – | – | inhibition in vivo at 10 mg/kg (Rattus norvegicus [5]): 66%
Cc1ccc2sc(S(=O)(=O)c3ccc(O)nn3)cc2c1 | 160 nM | – | 7% | – | –
Cc1c(S(=O)(=O)c2ccc(O)nn2)oc2ccccc12 | 140 nM | 43% | 56% | – | –
O=S(=O)(Cc1cccc(C(F)(F)F)c1)c1ccc(O)nn1 | 72 nM | – | 70% | 88% | inhibition in vivo at 20 mg/kg (Rattus norvegicus [10]): 42%; inhibition in vivo at 20 mg/kg (Rattus norvegicus [11]): 65%
O=c1ccc(S(=O)(=O)c2cc3cc(Cl)ccc3o2)n[nH]1 | – | 39% | – | – | –
O=c1ccc(S(=O)(=O)c2cc3cc4c(cc3[nH]2)OCO4)n[nH]1 | 3800 nM | – | – | – | –
O=S(=O)(Cc1cccc(Cl)c1F)c1ccc(O)nn1 | 54 nM | – | 64% | 74% | –
O=S(=O)(Cc1ccccc1F)c1ccc(O)nn1 | 422 nM | – | – | – | –
O=S(=O)(c1ccc(O)nn1)c1ccccc1Br | – | – | – | – | inhibition in vivo at 50 mg/kg (Rattus norvegicus [12]): 55%
CCc1c(S(=O)(=O)c2ccc(O)nn2)oc2ccc(Cl)cc12 | 6 nM | – | – | – | inhibition in vivo at 10 mg/kg (Rattus norvegicus [13]): 24%; inhibition in vivo at 10 mg/kg (Rattus norvegicus [14]): 48%
O=S(=O)(c1ccc(O)nn1)c1ccccc1Cl | – | 68% | 81% | 101% | inhibition in vivo at 10 mg/kg (Rattus norvegicus [5]): 96%

More lines, main results first:

IC50 [1] | SMILES | inhibition in vivo at 10 mg/kg (Rattus norvegicus [4]) | inhibition in vivo at 20 mg/kg (Rattus norvegicus [6]) | inhibition in vivo at 20 mg/kg (Rattus norvegicus [7]) | also measured
390 nM | O=c1ccc(S(=O)(=O)c2cccc(F)c2F)n[nH]1 | – | – | – | inhibition in vivo at 10 mg/kg (Rattus norvegicus [2]): 50%; inhibition in vivo at 30 mg/kg (Rattus norvegicus [3]): 81%
34 nM | O=c1ccc(S(=O)(=O)c2oc3ccc(Cl)cc3c2-c2ccccc2)n[nH]1 | – | 20% | 27% | –
240 nM | O=S(=O)(c1cccc(Cl)c1)c1ccc(O)nn1 | – | – | – | –
180 nM | O=c1ccc(S(=O)(=O)c2cc3ccccc3s2)n[nH]1 | – | 22% | 46% | –
87 nM | O=c1ccc(S(=O)(=O)c2cc3cc(Cl)cc(Cl)c3o2)n[nH]1 | 39% | – | – | inhibition in vivo at 10 mg/kg (Rattus norvegicus [5]): 32%
175 nM | O=c1ccc(S(=O)(=O)c2cccc(C(F)(F)F)c2)n[nH]1 | – | 17% | 45% | –
360 nM | O=c1ccc(S(=O)(=O)c2ccc(C(F)(F)F)cc2)n[nH]1 | 10% | 24% | 67% | inhibition in vivo at 10 mg/kg (Rattus norvegicus [5]): 44%
44 nM | O=c1ccc(S(=O)(=O)Cc2cccc(C(F)(F)F)c2F)n[nH]1 | – | 56% | 61% | –
380 nM | O=c1ccc(S(=O)(=O)c2ccc(Cl)cc2)n[nH]1 | 52% | – | – | inhibition in vivo at 10 mg/kg (Rattus norvegicus [5]): 65%
645 nM | O=c1ccc(S(=O)(=O)c2cc3ccc(Cl)cc3[nH]2)n[nH]1 | – | – | – | –
35 nM | O=c1ccc(S(=O)(=O)Cc2cccc(Cl)c2Cl)n[nH]1 | – | 48% | 65% | –
